Legend:
Aromatase [1] = molecular target: T1, Aromatase (Homo sapiens, UniProt P11511); experiment: Inhibition of Cytochrome P450 19A1 at 20 ug/mL
T1 sequence (P11511 whole entry): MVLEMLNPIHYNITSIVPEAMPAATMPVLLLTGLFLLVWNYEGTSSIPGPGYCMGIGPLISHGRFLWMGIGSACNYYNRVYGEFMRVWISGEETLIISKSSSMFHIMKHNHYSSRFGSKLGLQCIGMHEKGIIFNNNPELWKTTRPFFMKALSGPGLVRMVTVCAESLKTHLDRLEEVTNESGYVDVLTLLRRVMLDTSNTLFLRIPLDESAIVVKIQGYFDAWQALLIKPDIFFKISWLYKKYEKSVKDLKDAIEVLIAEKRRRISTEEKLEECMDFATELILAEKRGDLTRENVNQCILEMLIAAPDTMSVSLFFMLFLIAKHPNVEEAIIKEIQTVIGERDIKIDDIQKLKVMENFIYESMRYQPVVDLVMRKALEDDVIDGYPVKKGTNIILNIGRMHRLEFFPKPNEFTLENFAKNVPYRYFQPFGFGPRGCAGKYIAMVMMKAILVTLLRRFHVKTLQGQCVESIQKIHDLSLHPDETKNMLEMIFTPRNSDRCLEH

[2] = molecular target: T2, Cytochrome P450 11A1 (desmolase, cholesterol side-chain cleavage enzyme) (Bos taurus, UniProt P00189); experiment: Inhibition of bovine adrenal desmolase cytochrome P450 11A1 at 50 ug/mL; details: cattle
T2 sequence (P00189 whole entry): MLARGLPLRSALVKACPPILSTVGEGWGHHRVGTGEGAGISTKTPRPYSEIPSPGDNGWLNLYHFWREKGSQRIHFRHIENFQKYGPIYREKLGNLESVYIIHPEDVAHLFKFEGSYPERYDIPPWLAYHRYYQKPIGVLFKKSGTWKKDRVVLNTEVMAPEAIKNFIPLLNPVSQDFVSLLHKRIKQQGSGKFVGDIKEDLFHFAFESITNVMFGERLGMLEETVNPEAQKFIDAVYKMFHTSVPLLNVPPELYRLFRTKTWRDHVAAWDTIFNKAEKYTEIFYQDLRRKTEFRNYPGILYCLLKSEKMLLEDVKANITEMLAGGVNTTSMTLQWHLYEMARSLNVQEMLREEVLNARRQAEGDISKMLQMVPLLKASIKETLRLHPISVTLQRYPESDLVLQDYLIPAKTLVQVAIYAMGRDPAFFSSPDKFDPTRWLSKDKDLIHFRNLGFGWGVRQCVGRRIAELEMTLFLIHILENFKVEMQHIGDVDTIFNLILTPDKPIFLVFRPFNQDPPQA

[3] = molecular target: T3, Cholesterol side-chain cleavage enzyme, mitochondrial (Bos taurus, UniProt P00189); experiment: Inhibition of bovine adrenal desmolase at 50 ug/mL; None; details: cattle; at 50 µg/mL
T3 sequence (P00189 whole entry): T2 sequence (P00189 whole entry)

Aromatase [4] = molecular target: T1, Aromatase; experiment: Inhibition of Cytochrome P450 19A1 at 20 ug/mL; None; details: at 20 µg/mL

| inhibition at 20 µg/mL (Aromatase [1]) | inhibition at 50 ug/mL [2] | Inhibition [3] | Inhibition (Aromatase [4]) | Structure (SMILES) |
| --- | --- | --- | --- | --- |
| 27% | 38% |  |  | CCC1(c2ccncc2)CCC(=O)N(N)C1=O (configuration not stated) |
|  |  | Not Active |  | CCC1(c2ccncc2)CCC(=O)NC1=O (configuration not stated) [ROGLETIMIDE] |
| 25% |  | Not Active |  | CCC1(c2c(F)c(F)nc(F)c2F)CCC(=O)NC1=O (configuration not stated) |
|  |  | Not Active | Not Active | CCC1(c2cc[n+]([O-])cc2)CCC(=O)NC1=O (configuration not stated) |

— ChEMBL document CHEMBL1123108 (J Med Chem, 1985)
